Measured values taken from patent publication US20130035302A1, “USE OF […] ANALOGUES AND DERIVATIVES THEREOF FOR TREATING AND/OR PREVENTING NEURODEGENERATIVE DISEASES LINKED TO TAU AND BETA AMYLOID” (UNIVERSIDADE DE SANTIAGO DE COMPOSTELA, priority 2010, published 2013).

Experiments:
β-amyloid = experiment: Intracellular β-amyloid expression, immunocytometry with 6E10 antibody; assay type: cell-based, mouse; settings: 3xTg-AD neocortical cultures, 1 nM yessotoxin between days 3 and 7 of culture; **p<0.005 vs transgenic cultures, n=3
Excerpt: (§1) In order to carry out the experiments of the present invention, either an in vitro cortical neuronal model with simultaneous overexpression of Tau and β-amyloid, obtained from a model of Alzheimer's disease in triple-transgenic (3xTg-AD or 3xTg) mice, obtainable via the detailed procedure in the international patent application WO 2003/053136 and provided by the title holders of this application, or an in vitro cortical neuronal model obtained from non-transgenic (no Tg) mice was used.
(§2) The effect of yessotoxin on overexpression of β-amyloid and Tau hyperphosphorylation was determined by immunocytometric and Western blot techniques. Primary neuronal cultures were treated with 1 nM yessotoxin between days 3 and 7 of culture. The cells were then processed following the usual protocols for immunocytometry and Western blot. For immunocytometric and Western blot studies, protein expression was evaluated using 6E10 anti-β-amyloid primary antibodies at a dilution of 1:500, AT8 anti-Tau (Tau phosphorylated on Ser202, dilution 1:1000) and AT100 anti-Tau (Tau phosphorylated on Thr212 and Ser214, dilution 1:1000). […] Total protein concentration was determined by Bradford's method using bovine albumin as standard. […] The membranes were incubated with the primary antibodies, washed, and then incubated with a secondary antibody linked to HRP; the immunoreactivity was detected by chemiluminescence. […]

[1] = Paz et al., Marine Drugs 2008; cited from earlier work
[2] = system: Tau phosphorylated on Ser202; experiment: Phosphorylated Tau (Ser202), Western blot with AT8 antibody; assay type: cell-based, mouse; settings: 3xTg-AD cortical cultures, 1 nM yessotoxin between days 3 and 7 of culture; *p<0.05, n=3
Excerpt: as §1, §2

[3] = system: Tau phosphorylated on Thr212 and Ser214; experiment: Phosphorylated Tau (Thr212 and Ser214), Western blot with AT100 antibody; assay type: cell-based, mouse; settings: 3xTg-AD cortical cultures, 1 nM yessotoxin between days 3 and 7 of culture; n=3
Excerpt: as §1, §2

[4] = system: primary cortical cultures; experiment: Cellular viability, Alamar Blue fluorescence assay; assay type: cell-based, mouse; settings: primary cortical neurones, up to concentrations of 1 nM, Alamar Blue 10%
Excerpt: as §1
The primary cortical cultures in the present invention were obtained from 3xTg-AD mouse embryos of 15-17 days of gestation and the wild cultures were obtained from non-3xTg control mouse embryos of the same strain. The effect of the compounds used in this invention on cellular viability was estimated by a fluorescence assay using the Alamar Blue viability indicator. To carry out the assay, primary cortical cultures seeded on 96-well plates were used. The neuronal cells were incubated with yessotoxin, which was added to the culture medium at different concentrations, and the effect on in vitro neuronal viability at different treatment times was determined. The maximum concentration of yessotoxin evaluated was 1 nM and the concentration of Alamar blue was 10%.
The reaction volume used was 200 μl. Fluorescence was measured at wavelengths of 530 nm (excitation) and 590 nm (emission).

Substance: yessotoxin
- overexpression of β-amyloid (6E10 immunoreactivity) (β-amyloid): significant reduction of overexpression of β-amyloid
- oral toxicity [1]: does not exhibit oral toxicity
- Tau phosphorylation (AT8, Ser202) [2]: significant reduction of Tau phosphorylation
- reduction of Tau phosphorylation (AT100, Thr212 and Ser214) [3]: 12%
- effect on in vitro cell viability [4]: did not affect in vitro cell viability
